The text below walks through data of patent US11667645B2, “Granzyme B directed imaging and therapy” (CytoSite Biopharma Inc., priority 2018, dated 2023).

This test deals with Granzyme B (human lymphocytes) (Homo sapiens (Human), UniProt P10144). The test can be described thus: human Granzyme B biochemical assay. Conditions: Granzyme B (human lymphocytes) 5 nM, substrate Ac-IETD-AFC 200 μM, Cpd incubation with enzyme 30 mins, 22° C., read time 60 mins; read-out: IC50. The essentials: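 Fluorogenic Ac-IETD-AFC cleavage (Ex 400/Em 505 nm) read after 60 min at 22 °C, following 30 min, 22 °C enzyme–compound pre-incubation. Working stocks: enzyme 10 nM in 0.1% BSA buffer, substrate 800 µM, compound 8 points, 3.16-fold from 40 µM. Controls set 0% (DMSO) and 100% (standard inhibitor) inhibition; IC50 fitted.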
Granzyme B (human lymphocytes), sequence (P10144 21-247): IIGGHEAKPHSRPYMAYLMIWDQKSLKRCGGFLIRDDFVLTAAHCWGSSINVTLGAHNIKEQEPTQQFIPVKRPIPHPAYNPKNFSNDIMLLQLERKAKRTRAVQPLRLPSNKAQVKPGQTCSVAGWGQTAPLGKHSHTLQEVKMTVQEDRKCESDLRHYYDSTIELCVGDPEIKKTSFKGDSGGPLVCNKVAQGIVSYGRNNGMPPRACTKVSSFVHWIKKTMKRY

Usually IC50 stands for the point on the concentration scale where inhibition reaches its midpoint. With `CC[C@H](C)[C@H](NC(=O)COCCF)C(=O)N[C@H]1CCc2cccc3c2N(C1=O)[C@H](C(=O)NCc1cnsc1)C3` [Compound C118, (2S,5S)-5-{(2S,3S)-2-[2-(2-Fluoro-ethoxy)-acetylamino]-3-methyl-pentanoylamino}-4-oxo-1,2,4,5,6,7-hexahydro-azepino[3,2,1-hi]indole-2-carboxylic acid (isothiazol-4-ylmethyl)-amide], the IC50 was greater than 5 µM. `CC[C@H](C)[C@H](NC(=O)Cc1cc2ccccc2[nH]1)C(=O)N[C@H]1CCc2cccc3c2N(C1=O)[C@H](C(=O)NCc1c[nH]nn1)C3` [Compound C161, (2S,5S)-5-[(2S,3S)-2-(2-1H-Indol-2-yl-acetylamino)-3-methyl-pentanoylamino]-4-oxo-1,2,4,5,6,7-hexahydro-azepino[3,2,1-hi]indole-2-carboxylicacid (1H-[1,2,3]triazol-4-ylmethyl)-amide]: the IC50 was 0.001 to 0.3 µM.

On to `COC(=O)[C@H](C)NC(=O)[C@@H]1Cc2cccc3c2N1C(=O)[C@@H](NC(=O)[C@@H](NC(C)=O)C(C)C)CC3` [Compound C090, (S)-2-{[(2S,5S)-5-((S)-2-Acetylamino-3-methyl-butyrylamino)-4-oxo-1,2,4,5,6,7-hexahydro-azepino[3,2,1-hi]indole-2-carbonyl]-amino}-propionic acid methyl ester], for which the IC50 is greater than 5 µM. On to `CC[C@H](C)[C@H](NC(=O)COCCF)C(=O)N[C@H]1CS(=O)(=O)c2cccc3c2N(C1=O)[C@H](C(=O)NCc1c[nH]nn1)C3` [Compound C172, (1S,8R)-8-{(2S,3S)-2-[2-(2-Fluoro-ethoxy)-acetylamino]-3-methyl-pentanoylamino}-6,6,9-trioxo-1,2,6,7,8,9-hexahydro-6lambda*6*- thia-9a-aza-benzo[cd]azulene-1-carboxylic acid (1H-[1,2,3]triazol-4-ylmethyl)-amide], for which the IC50 fell in the range of 0.301 to 1 µM.

`O=C(CNC(=O)c1ccccc1)N[C@H]1CCc2cccc3c2N(C1=O)[C@H](C(=O)NCc1c[nH]nn1)C3` [Compound C034, (2S,5S)-5-(2-Benzoylamino-acetylamino)-4-oxo-1,2,4,5,6,7-hexahydro-azepino[3,2,1-hi]indole-2-carboxylic acid (1H-[1,2,3]triazol-4-ylmethyl)-amide]: the IC50 is greater than 5 µM. As to `CC(C)[C@H](NC(=O)c1cccc(F)c1)C(=O)N[C@H]1CCc2cccc3c2N(C1=O)[C@H](C(=O)NCc1c[nH]nn1)C3` [Compound C048, (2S,5S)-5-[(S)-2-(3-Fluoro-benzoylamino)-3-methyl-butyrylamino]-4-oxo-1,2,4,5,6,7-hexahydro-azepino[3,2,1-hi]indole-2-carboxylic acid (1H-[1,2,3]triazol-4-ylmethyl)-amide], the IC50 was in the range of 0.001 to 0.3 µM.

For the molecule `CC[C@H](C)[C@H](NC(=O)COCCF)C(=O)N[C@H]1CCc2cccc3c2N(C1=O)[C@H](C(=O)NCc1ccccc1Cl)C3` [Compound C130, (2S,5S)-5-{(2S,3S)-2-[2-(2-Fluoro-ethoxy)-acetylamino]-3-methyl-pentanoylamino}-4-oxo-1,2,4,5,6,7-hexahydro-azepino[3,2,1-hi]indole-2-carboxylic acid 2-chloro-benzylamide], the IC50 was greater than 5 µM. Then `CC[C@H](C)[C@H](NC(=O)COCCF)C(=O)N[C@H]1CCc2cccc3c2N(C1=O)[C@H](C(=O)NCc1ccn[nH]1)C3` [Compound C149, (2S,5S)-5-{(2S,3S)-2-[2-(2-Fluoro-ethoxy)-acetylamino]-3-methyl-pentanoylamino}-4-oxo-1,2,4,5,6,7-hexahydro-azepino[3,2,1-hi]indole-2-carboxylic acid (2H-pyrazol-3-ylmethyl)-amide], with greater than 5 µM; and `CC[C@H](C)[C@H](NC(=O)c1ccccn1)C(=O)N[C@H]1CCc2cccc3c2N(C1=O)[C@H](C(=O)NCc1c[nH]nn1)C3` [Compound C066, (2S,5S)-5-{(2S,3S)-3-Methyl-2-[(pyridine-2-carbonyl)-amino]-pentanoylamino}-4-oxo-1,2,4,5,6,7-hexahydro-azepino[3,2,1-hi]indole-2-carboxylicacid (1H-[1,2,3]triazol-4-ylmethyl)-amide], with 0.001 to 0.3 µM.

For the molecule `CC(C)[C@H](NC(=O)c1ccccn1)C(=O)N[C@H]1CCc2cccc3c2N(C1=O)[C@H](C(=O)NCc1c[nH]nn1)C3` [Compound C069, (2S,5S)-5-{(S)-3-Methyl-2-[(pyridine-2-carbonyl)-amino]-butyrylamino}-4-oxo-1,2,4,5,6,7-hexahydro-azepino[3,2,1-hi]indole-2-carboxylic acid (1H-[1,2,3]triazol-4-ylmethyl)-amide], the IC50 was 0.001 to 0.3 µM. To `CC(C)(C)[C@H](NC(=O)c1ccccc1)C(=O)N[C@H]1CCc2cccc3c2N(C1=O)[C@H](C(=O)NCc1c[nH]nn1)C3` [Compound C046, (2S,5S)-5-((S)-2-Benzoylamino-3,3-dimethyl-butyrylamino)-4-oxo-1,2,4,5,6,7-hexahydro-azepino[3,2,1-hi]indole-2-carboxylic acid (1H-[1,2,3]triazol-4-ylmethyl)-amide] belongs 0.301 to 1 µM; to `C[C@H](NC(=O)Cc1ccccc1)C(=O)N[C@H]1CCc2cccc3c2N(C1=O)[C@H](C(=O)NCc1c[nH]nn1)C3` [Compound C013, (2S,5S)-4-Oxo-5-((S)-2-phenylacetylamino-propionylamino)-1,2,4,5,6,7-hexahydro-azepino[3,2,1-hi]indole-2-carboxylic acid (1H-[1,2,3]triazol-4-ylmethyl)-amide], greater than 5 µM; to `O=C(O)CC[C@H](NC(=O)c1ccccc1)C(=O)N[C@H]1CCc2cccc3c2N(C1=O)[C@H](C(=O)NCc1c[nH]nn1)C3` [Compound C041, (S)-4-Benzoylamino-4-{(2S,5S)-4-oxo-2-[(1H-[1,2,3]triazol-4-ylmethyl)-carbamoyl]-1,2,4,5,6,7-hexahydro-azepino[3,2,1-hi]indol-5-ylcarbamoyl}-butyric acid], greater than 5 µM.

With `CC(=O)N[C@H](C(=O)N[C@H]1CCc2cccc3c2N(C1=O)[C@H](C(=O)NCC(=O)O)C3)C(C)C` [Compound C085, {[(2S,5S)-5-((S)-2-Acetylamino-3-methyl-butyrylamino)-4-oxo-1,2,4,5,6,7-hexahydro-azepino[3,2,1-hi]indole-2-carbonyl]-amino}-acetic acid], the IC50 fell in the range of 1 to 5 µM. In the case of `CC(=O)N[C@@H](CCC(=O)O)C(=O)N[C@H]1CCc2cccc3c2N(C1=O)[C@H](C(=O)NCc1c[nH]nn1)C3` [Compound C030, (S)-4-Acetylamino-4-{(2S,5S)-4-oxo-2-[(1H-[1,2,3]triazol-4-ylmethyl)-carbamoyl]-1,2,4,5,6,7-hexahydro-azepino[3,2,1-hi]indol-5-ylcarbamoyl}-butyric acid], the IC50 was greater than 5 µM. Turning to `COc1ccccc1C(=O)N[C@H](C(=O)N[C@H]1CCc2cccc3c2N(C1=O)[C@H](C(=O)NCc1c[nH]nn1)C3)C(C)C` [Compound C063, (2S,5S)-5-[(S)-2-(2-Methoxy-benzoylamino)-3-methyl-butyrylamino]-4-oxo-1,2,4,5,6,7-hexahydro-azepino[3,2,1-hi]indole-2-carboxylic acid (1H-[1,2,3]triazol-4-ylmethyl)-amide], the IC50 lay within 0.001 to 0.3 µM.

In the case of `O=C(N[C@@H](Cc1ccccc1)C(=O)N[C@H]1CCc2cccc3c2N(C1=O)[C@H](C(=O)NCc1c[nH]nn1)C3)c1ccccc1` [Compound C037], the IC50 lay in the range of 1 to 5 µM.
